Patent US4332895A, “Thermal stable beta-galactosidase” (National Research Development Corp., priority 1978, dated 1982)
Where two headings read alike, the source gives them in different places.

How the values were obtained:
Assay type in all cases: biochemical
[1] = tested on: β-galactosidase of Bacillus stearothermophilus HRI strains (HRI enzyme), purified enzyme; assay: β-galactosidase assay, purified enzyme, ONPG or lactose as substrate
Method: The assay used is based on that of Lederberg (J. Bacteriol. 1950, 60, 381), using an assay mixture comprising 2.8 ml of 50 mM sodium phosphate, pH 7.0, and 0.1 ml of 68 mM ONPG. 0.1 ml aliquots of both purified enzyme and toluene-treated cell suspension, and 10 mg. amounts in 2.9 ml of buffer of freeze dried immobilised whole cell preparation are used for the assays. Assays are carried out at incubation temperature of 65° C. and after the appropriate time interval the reactions are halted by addition of 3 ml aliquots of 0.5 M sodium bicarbonate to each reaction mixture and immediate cooling in an ice bath. The absorbance of the resultant solutions is measured at 410 nm using a Perkin-Elmer 124 double beam spectrophotometer. In the case of whole cell suspensions the assay tubes are centrifuged and in the case of the immobilised cells the mixtures are filtered, to remove cells and polyacrylamide gel respectively prior to measurement of the absorbance.
The assay mixture used comprises 0.9 ml of 50 mM sodium phosphate buffer, pH 7.0, 4 ml of lactose (4 g in 100 ml of phosphate buffer), to which 0.1 ml of purified enzyme or cell suspension or 10 mg of gel entrapped cell preparation is added. The reaction mixtures are incubated for 15 minutes at 65° C., reactions are halted by addition of 4.2% perchloric acid and the solutions are centrifuged. Aliquots of the supernatant solutions are assayed for glucose or galactose.
Glucose is estimated by a modification of the method of Trinder (Ann. Clin. Biochem. 1969 6, 24). 1 ml aliquots of the supernatant solutions are assayed by addition to a mixture comprising 1 ml of 0.2% phenol and 3 ml of colour reagent (75 ml 4% (w/v) disodium hydrogen orthophosphate, 225 ml of water, 6 mg of glucose oxidase (Boehringer Corp. Ltd.), 0.15 ml peroxidase (Boehringer Corp. Ltd.), 100 mg of 4-aminophenazone and 300 mg of sodium azide) followed by incubation at 37° C. for 10 minutes and absorbance measurement at 515 nm.
Galactose is estimated as follows: a sample (e.g. 0.2 ml) containing not more than 200 μg/ml of galactose is mixed with 2.5 ml of buffer (4.8 g Na2 HPO4, 0.86g NaH2 PO4 and 0.2 g MgSO4 7H2 O per 200 ml of H2 O) and 0.1 ml of 10 mg/ml of NAD solution and the absorbance is measured at 340 nm. 0.02 ml of galactose dehydrogenase (Boehringer Corp. Ltd.) is added, the solutions incubated at 37° C. for 30 minutes and the absorbance again measured at 340 nm.

[2] = tested on: β-galactosidase of Bacillus stearothermophilus HRI strains, whole cell suspension; assay: β-galactosidase assay, toluene-treated whole cell suspension, ONPG or lactose as substrate; settings: for Km: whole cell suspension, pH 7.0, 65° C.
Method: The cells are shaken at room temperature for about 5 minutes, and then harvested by centrifugation at 6000 g for 20 minutes in an MSE "Hi Spin 21" centrifuge prior to washing with buffer. […] The relation of Harris and Kornberg (Proc. Roy. Soc. Lond. B. 1972, 182, 159) is used to determine the cell density, 0.33 mg. dry wt. of B. stearothermophilus corresponding to an absorbance of 1.0 at 680 n.m. The assay used is based on that of Lederberg (J. […] Assays are carried out at incubation temperature of 65° C. and after the appropriate time interval the reactions are halted by addition of 3 ml aliquots of 0.5 M sodium bicarbonate to each reaction mixture and immediate cooling in an ice bath. The absorbance of the resultant solutions is measured at 410 nm using a Perkin-Elmer 124 double beam spectrophotometer. In the case of whole cell suspensions the assay tubes are centrifuged and in the case of the immobilised cells the mixtures are filtered, to remove cells and polyacrylamide gel respectively prior to measurement of the absorbance. […] The reaction mixtures are incubated for 15 minutes at 65° C., reactions are halted by addition of 4.2% perchloric acid and the solutions are centrifuged. Aliquots of the supernatant solutions are assayed for glucose or galactose. Glucose is estimated by a modification of the method of Trinder (Ann. Clin. […] Ltd.), 0.15 ml peroxidase (Boehringer Corp. Ltd.), 100 mg of 4-aminophenazone and 300 mg of sodium azide) followed by incubation at 37° C. for 10 minutes and absorbance measurement at 515 nm. […] Ltd.) is added, the solutions incubated at 37° C. for 30 minutes and the absorbance again measured at 340 nm.

[3] = tested on: β-galactosidase of Bacillus stearothermophilus HRI strains, entrapped whole cell preparation; assay: β-galactosidase assay, polyacrylamide gel entrapped (immobilised) whole cell preparation, ONPG or lactose as substrate; settings: for Km: entrapped whole cell preparation, pH 7.0, 65° C.
Method: Washed cells which have been toluene treated, as above, are resuspended in an equal volume of 50 mM sodium phosphate buffer, pH 7.0, containing acrylamide (200 g/l) and NN'-methylenebisacrylamide (20 g/l). Ammonium persulphate (2 […]) are added to this suspension which is then allowed to gel, and the gel is disrupted by forcing through a wire mesh, as described by Hjerten (Arch. Biochem. Biophys. […] The disrupted gel is freeze-dried to provide a stock of enzymatically active immobilised whole cell preparation. The assay used is based on that of Lederberg (J. […] Assays are carried out at incubation temperature of 65° C. and after the appropriate time interval the reactions are halted by addition of 3 ml aliquots of 0.5 M sodium bicarbonate to each reaction mixture and immediate cooling in an ice bath. The absorbance of the resultant solutions is measured at 410 nm using a Perkin-Elmer 124 double beam spectrophotometer. In the case of whole cell suspensions the assay tubes are centrifuged and in the case of the immobilised cells the mixtures are filtered, to remove cells and polyacrylamide gel respectively prior to measurement of the absorbance. […] The reaction mixtures are incubated for 15 minutes at 65° C., reactions are halted by addition of 4.2% perchloric acid and the solutions are centrifuged. Aliquots of the supernatant solutions are assayed for glucose or galactose. Glucose is estimated by a modification of the method of Trinder (Ann. Clin. […] Ltd.), 0.15 ml peroxidase (Boehringer Corp. Ltd.), 100 mg of 4-aminophenazone and 300 mg of sodium azide) followed by incubation at 37° C. for 10 minutes and absorbance measurement at 515 nm. […] Ltd.) is added, the solutions incubated at 37° C. for 30 minutes and the absorbance again measured at 340 nm.

[4] = read-out: Michaelis constant (Km) with ONPG as substrate
[5] = read-out: Km with lactose as substrate

SMILES: N[C@@H](CS)C(=O)O [Cysteine, cysteine]
- % Activity ([1]; addition at 10 mM final, ONPG as substrate, purified enzyme, no addition = 100): 98.1%
- % Activity ([2]; addition at 10 mM final, ONPG as substrate, whole cells, no addition = 100): 103.7%
- % Activity ([3]; addition at 10 mM final, ONPG as substrate, immobilised whole cells, no addition = 100): 109.4%

SMILES: O=[N+]([O-])c1ccccc1O[C@@H]1O[C@H](CO)[C@H](O)[C@H](O)[C@H]1O [ONPG, orthonitrophenyl-β-D-galactopyranoside, reference compound]
- Km ([1]; HRI enzyme, measured at 65° C., read-out: Michaelis constant (Km) for ONPG): 430 µM
- Km ([1]; purified enzyme, pH 7.0, 65° C., read-out: Michaelis constant (Km) with ONPG as substrate): 430 µM
- Km [2, 4]: 380 µM
- Km [3, 4]: 260 µM

SMILES: OC[C@H]1O[C@@H](O[C@H]2[C@H](O)[C@@H](O)C(O)O[C@@H]2CO)[C@H](O)[C@@H](O)[C@H]1O (some centres unmarked) [lactose]
- Km ([1]; HRI enzyme, measured at 65° C., read-out: Michaelis constant (Km) for lactose): 2100 µM
- Km ([1]; purified enzyme extract, pH 7.0, 65° C., read-out: Km with lactose as substrate): 2060 µM
- Km [2, 5]: 11800 µM
- Km [3, 5]: 9520 µM
